Laboratory results reported in patent US7709516B2, “Helix 12 directed non-steroidal antiandrogens” (Endorecherche, Inc., priority 2005, dated 2010).
Where two headings read alike, the source gives them in different places.

Experiments:
[1] = tested on: rat prostate, seminal vesicle, levator ani muscle; test: Systemic antiandrogenic activity in orchidectomized immature male rats with DHT implant; assay type: in vivo; details: Rattus norvegicus, 168 h, rat +DHT, 0.5 mg/animal daily 7 days
[2] = biological target: T1, Human Androgen Receptor (Homo sapiens, UniProt P10275); test: Androgen receptor binding assay ([3H]R1881, HAP) in cytosol of HEK-293 cells transfected with hAR; details: relative to R1881 = 100, transfected cells
T1 sequence (P10275 1-920): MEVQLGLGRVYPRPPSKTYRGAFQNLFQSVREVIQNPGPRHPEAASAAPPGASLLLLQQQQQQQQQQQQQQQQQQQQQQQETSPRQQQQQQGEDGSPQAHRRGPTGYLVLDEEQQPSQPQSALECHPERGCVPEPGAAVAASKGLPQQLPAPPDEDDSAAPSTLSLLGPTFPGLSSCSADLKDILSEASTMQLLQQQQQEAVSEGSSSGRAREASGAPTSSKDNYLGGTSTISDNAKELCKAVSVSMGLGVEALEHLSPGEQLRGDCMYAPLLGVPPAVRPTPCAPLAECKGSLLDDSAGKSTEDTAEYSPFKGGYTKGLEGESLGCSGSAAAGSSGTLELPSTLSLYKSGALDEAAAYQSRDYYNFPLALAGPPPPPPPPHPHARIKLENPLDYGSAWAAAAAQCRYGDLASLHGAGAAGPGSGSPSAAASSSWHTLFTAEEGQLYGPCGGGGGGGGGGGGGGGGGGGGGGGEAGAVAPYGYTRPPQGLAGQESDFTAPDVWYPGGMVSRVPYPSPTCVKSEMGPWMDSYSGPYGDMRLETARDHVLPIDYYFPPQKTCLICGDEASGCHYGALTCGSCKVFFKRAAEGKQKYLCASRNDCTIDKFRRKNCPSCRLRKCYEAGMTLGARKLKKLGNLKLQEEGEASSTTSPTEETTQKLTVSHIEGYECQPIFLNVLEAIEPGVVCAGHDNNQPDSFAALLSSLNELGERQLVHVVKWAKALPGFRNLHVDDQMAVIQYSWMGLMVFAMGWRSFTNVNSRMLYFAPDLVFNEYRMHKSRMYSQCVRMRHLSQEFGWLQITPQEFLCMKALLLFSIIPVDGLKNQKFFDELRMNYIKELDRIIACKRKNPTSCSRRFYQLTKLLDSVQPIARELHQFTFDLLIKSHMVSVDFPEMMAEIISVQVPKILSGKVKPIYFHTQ

[3] = tested on: Shionogi mouse mammary carcinoma cells; test: Androgenic/antiandrogenic activity: inhibition of DHT-stimulated Shionogi cell number; assay type: cell-based; details: Mus musculus, DHT-stimulated Shionogi cell number
[4] = read-out: Lev Ani % inhibition, Table 1, s.c. or p.o. (route not marked), levator ani
[5] = read-out: Prostate % inhibition, Table 1, s.c. or p.o. (route not marked in cell)
[6] = read-out: SV % inhibition, Table 1, s.c. or p.o. (route not marked), seminal vesicle
[7] = read-out: Shionogi Antiandrogenic Activity IC50, Table 1
[8] = read-out: Lev Ani % inhibition, Table 2, s.c. or p.o. (route not marked), levator ani
[9] = read-out: Prostate % inhibition, Table 2, s.c. or p.o. (route not marked)
[10] = read-out: SV % inhibition, Table 2, s.c. or p.o. (route not marked), seminal vesicle
[11] = read-out: Shionogi Antiandrogenic Activity IC50, Table 2
[12] = Prostate cell, po, read-out: Lev Ani % inhibition, Table 1, p.o, levator ani
[13] = Prostate cell, po, read-out: SV % inhibition, Table 1, p.o, seminal vesicle
[14] = po, read-out: Prostate % inhibition, Table 1, p.o

SMILES	inhibition in vivo at 0.5 mg [1, 4] [%]	inhibition in vivo at 0.5 mg [1, 5] [%]	inhibition in vivo at 0.5 mg [1, 6] [%]	Human Androgen Receptor Binding (%) RBA R1881 = 100 ([2]; Table 1) [%]	IC50 [3, 7] [nM]	inhibition in vivo at 0.5 mg [1, 8] [%]	inhibition in vivo at 0.5 mg [1, 9] [%]	inhibition in vivo at 0.5 mg [1, 10] [%]	Human Androgen Receptor Binding (%) RBA R1881 = 100 ([2]; Table 2) [%]	IC50 [3, 11] [nM]	inhibition in vivo at 0.5 mg [1, 12] [%]	inhibition in vivo at 0.5 mg [1, 13] [%]	inhibition in vivo at 0.5 mg [1, 14] [%]
CC(C)NCc1ccc(OCCCN2C(=S)N(c3ccc(C#N)c(C(F)(F)F)c3)C(=O)C2(C)C)c(Cl)c1 [EM-7919]	9	28	53	29.0	6.7								
CC(C)NCc1ccc(OCCCN2C(=S)N(c3ccc(C#N)c(C(F)(F)F)c3)C(=O)C2(C)C)cn1 [EM-7926]	14	44	72	1.5	7.9								
CN(C)Cc1ccc(OCCCN2C(=S)N(c3ccc(C#N)c(C(F)(F)F)c3)C(=O)C2(C)C)cn1 [EM-7927]	61	32	55	2.4	6.9								
COc1cc(CNC(C)C)ccc1OCCCN1C(=S)N(c2ccc(C#N)c(C(F)(F)F)c2)C(=O)C1(C)C [EM-7930]	41	47	71	0.5	9.5								
CC(C)NS(=O)(=O)c1ccc(OCCCN2C(=S)N(c3ccc(C#N)c(C(F)(F)F)c3)C(=O)C2(C)C)cc1 [EM-7957]	75	44	72	5.9	17.6								
CCC(c1ccc(OCCC2(O)CCN(c3ccc(C#N)c(C(F)(F)F)c3)CC2)c(C)c1)N1CCCC1 (stereo not drawn) [EM-8003]						44	11	35	6.4	22.3			
CCC(CC)NC(CC)c1ccc(OCCC2(O)CCN(c3ccc(C#N)c(C(F)(F)F)c3)CC2)c(C)c1 (stereo not drawn) [EM-8006]						40	14	32	8.1	30.8			
CC1(C)C(=O)N(c2ccc(C#N)c(C(F)(F)F)c2)C(=S)N1CCCOc1ccc(S(C)(=O)=O)cc1 [EM-8056]				6.7	12						80	91	49
N#Cc1ccc(N2CCC(O)(CCOc3ccc(-c4cccnc4)c(CN4CCCC4)c3)CC2)cc1C(F)(F)F [EM-8058]						6	0	2	1.5	56.5			
N#Cc1ccc(N2CCC(O)(CCOc3cccc(CN4CCCC4)c3)CC2)cc1C(F)(F)F [EM-8059]						0	1	21	1.0	68.9			
CC1(C)C(=O)N(c2ccc(C#N)c(C(F)(F)F)c2)C(=S)N1CCCOc1ccc(-n2ccnc2)cc1 [EM-8062]				15.6	6.6						63	79	37
CCCC(c1ccc(OCCC2(O)CCN(c3ccc(C#N)c(C(F)(F)F)c3)CC2)cc1)N1CCCC1 (stereo not drawn) [EM-8096]						50	8	55	6.9	19.6			
